One experiment relates to anaesthetised cats. Nature of the experiment: Cardiac stimulant activity in vivo (anaesthetised cats, left ventricular dp/dt max). The following applies: Felis catus, read-out: ED50 (dose to increase left ventricular dp/dt max by 50%); anaesthetised cats pretreated with pempidine and propranolol, intravenous. An excerpt:
The dose to increase left ventricular dp/dt max by 50% is given as the EDso.

The subject of the next experiment is right ventricle strips. Kind of experiment: Cardiac stimulant activity in vitro (force of contraction of electrically stimulated ventricular strips). The experiment is classed as cell-based, Guinea pigs. Particulars: Cavia porcellus, read-out: EC50 (50% increase in the force of contraction of the ventricular strips); guinea pig right ventricular strips, 1.0 Hz stimulation, Krebs Henseleit solution at 37°C, cumulative concentration response.

Protocol for right ventricle strips: The compounds of formula (I) and their pharmaceutically acceptable salts are tested for cardiac stimulant activity following a procedure based on that of S.C. […] Guinea pigs (500-700 g) of either sex are sacrificed and the hearts are quickly removed and transferred to a dissecting dish containing oxygenated bathing fluid. While in the bathing medium, the right ventricle is cut into two strips. The strips are each suspended in a 50 ml bath containing Krebs Henseleit solution at 37°C, and the bath is bubbled with 95% oxygen and 5% carbon dioxide. The ventricular strips are electrically stimulated at a frequency of 1.0 Hz, at double the threshold voltage. A resting tension of 1.0 g is applied to the strips and the tension is kept constant by readjustment during an equilibration period of 60 minutes. The bathing fluid is frequently changed during this period. When a steady base line is obtained, a compound under test is added to the bathing fluid and a cumulative concentration response curve is plotted.

For `Nc1cc(-c2ccncc2)c[nH]c1=O` [Amrinone, reference compound], in the experiment on anaesthetised cats, the ED50 was found to be 5.6 µmol/kg. In addition, in the experiment with right ventricle strips, the EC50 is 15 µM.
As to `CC1CC(=O)NN=C1c1ccc(Nc2nc(=O)cc[nH]2)cc1` (centres unmarked) [Example 1, 6-[4-(1,4-Dihydro-4-oxo-2-pyrimidinylamino)phenyl]-5-methyl-4,5-dihydro-3(2H)-pyridazinone], in the experiment on anaesthetised cats, the ED50 came to 0.06 µmol/kg.
Same read-out and setting: next, `Cc1c[nH]c(Nc2ccc(C3=NNC(=O)CC3C)cc2)nc1=O` (centres unmarked) [Example 3, 6-[4-(1,4-Dihydro-5-methyl-4-oxo-2-pyrimidinylamino)phenyl]-5-methyl-4,5-dihydro-3-(2H)-pyridazinone]: 3.03 µmol/kg; `CC1CC(=O)NN=C1c1ccc(Nc2nc(=O)c3ccccc3[nH]2)cc1` (centres unmarked) [Example 4, 6-[4-(1,4-Dihydro-4-oxo-2-quinazolinyiamino)-phenyl]-5-methyl-4,5-dihydro-3(2H)-pyridazinone]: 0.41 µmol/kg.

For the origin of these results see patent EP0197664A2, “2-Aminopyrimidinone derivatives” (SMITH KLINE & FRENCH LABORATORIES LIMITED, priority 1985, dated 1986).
